In ChEMBL document CHEMBL6092139, “AChE inhibitory activity of N-substituted natural galanthamine derivatives” (Bioorg Med Chem Lett, 2024):

Biological target: Acetylcholinesterase (Homo sapiens, UniProt P22303)
Assay: Inhibition of AChE (unknown origin) using acetylthiocholine iodide as substrate preincubated for 30 mins followed by substrate addition and measured after 3 mins by DTNB reagent based Ellman's method

Sequence of Acetylcholinesterase (P22303 whole entry): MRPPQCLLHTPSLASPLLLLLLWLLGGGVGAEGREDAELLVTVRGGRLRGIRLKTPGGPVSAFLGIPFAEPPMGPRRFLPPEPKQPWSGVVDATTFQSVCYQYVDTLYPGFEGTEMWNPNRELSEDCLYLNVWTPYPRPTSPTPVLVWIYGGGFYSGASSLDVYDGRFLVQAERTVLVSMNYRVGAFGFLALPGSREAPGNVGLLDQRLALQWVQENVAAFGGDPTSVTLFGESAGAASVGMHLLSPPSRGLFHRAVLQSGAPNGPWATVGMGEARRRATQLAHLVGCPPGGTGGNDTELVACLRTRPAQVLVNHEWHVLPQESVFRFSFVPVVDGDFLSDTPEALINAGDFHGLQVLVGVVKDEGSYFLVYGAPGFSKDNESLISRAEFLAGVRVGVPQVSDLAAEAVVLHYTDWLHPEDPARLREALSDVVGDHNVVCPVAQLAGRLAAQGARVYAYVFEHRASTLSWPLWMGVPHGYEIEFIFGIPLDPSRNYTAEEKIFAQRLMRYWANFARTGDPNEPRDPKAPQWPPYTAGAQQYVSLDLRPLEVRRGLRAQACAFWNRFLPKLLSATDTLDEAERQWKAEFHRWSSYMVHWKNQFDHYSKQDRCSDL

| Structure (SMILES) | IC50 [µM] |
| --- | --- |
| COc1ccc2c3c1O[C@H]1C[C@@H](O)C=C[C@@]31CCN(C=O)C2 | 98.8 |
| COc1ccc2c3c1O[C@H]1C[C@@H](O)C=C[C@@]31CCN(C(C)=O)C2 | 9.8 |
| C=CCN1CC[C@@]23C=C[C@H](O)C[C@@H]2Oc2c(OC)ccc(c23)C1 [N-ALLYLNORGALANTHAMINE] | 0.18 |
